In US20250064890A1, “PROTEIN COMPOSITIONS FOR THE TREATMENT OF INFLAMMATORY DISEASES” (Unichem Laboratories Limited, priority 2021, published 2025):

What was measured:
[1] = test system: oral (buccal) mucosa cells (TR146); assay: Cytoprotective effect against 5-FU induced damage (MTT); type: cell-based, human
Experimental: The cell viability was assessed by (MTT) assay and compared with positive control (Cells treated with Amifostine, EGCG and EGF and negative assay (untreated cells), wherein the control was the cells that underwent chemotherapy/radiotherapy.
The protective effect of the recombinant lectin on survival of TR146 cells against 5-FU induced damage was determined using following calculations:
The viability of cells was determined as: % Cell viability=(100−% Cytotoxicity); • where, the percentage cytotoxicity corresponding to each treatment was calculated as: % Cytotoxicity=[(R−X)/R]*100, wherein X=Absorbance of cells treated with 5-FU or radiation damage/TI+5-FU, R=Absorbance of Control cells (Untreated) and Percentage protection was calculated as:
{(Absorbance of TI+5-FU or radiation)−(Absorbance of 5-FU or radiation alone)/(Absorbance of Untreated)−(Absorbance of 5-FU alone)}*100

[2] = test system: 5-Fluorouracil induced OM; assay: Histopathology score of cheek pouch, 5-FU induced OM in hamsters; type: in vivo, golden Syrian hamsters; conditions: G3, 0.1 mg/Animal; scale 1-5
Experimental: (§1) To induce OM, animals were administered (except normal control) 5-Fluorouracil (5-FU) by intraperitoneal route at doses of 60 mg/kg & 40 mg/kg respectively on first two days. On Day 4, under anesthesia, with aim of enhancing OM, mechanical irritation of the oral mucosa were done using wire brush. Treatment was initiated from Day 4 to Day 12. For group 3 animals 100 μl of vehicle comprising of standard drug Dexamethasone at 0.1 mg was instilled in buccal cheek pouch. For group 4, 5 and 6 animals 100 μl of vehicle comprising of SEQ ID NO. 2 at 0.25 mg, 0.5 mg & 1 mg, respectively was instilled in buccal cheek pouch. At the end of treatment period, cheek pouch of the hamsters was exposed, Mucositis scoring was carried out and images were captured. The animals were then humanely sacrificed, cheek pouch/jugular mucosa were isolated and used for biomarker estimation and histopathological investigation by using ELISA method and Hematoxylin and Eosin (H&E) staining, respectively.
For histopathology the oral mucosa tissues were sectioned 5 μm thickness and stained with hematoxylin-eosin staining. For study histopathological the sections were analyzed by light microscopy.
The pouch/jugular mucosa were observed and scored for infiltration of inflammatory cells, vasodilatation, presence of hemorrhagic areas, edema, ulcerations, and abscesses.

[3] = test system: 5-Fluorouracil induced OM; assay: Mucositis severity score, 5-FU induced OM in hamsters; type: in vivo, golden Syrian hamsters; conditions: G3, 0.1 mg/Animal, after 12 days; scale 0-5
Experimental: as §1
Mucositis severity was scored as given below: • Cheek pouch completely healthy—0; Mild erythema—1; • Severe erythema and superficial erosion—2; Formation of ulcers in one or more places—3; Cumulative ulcer formation about 50% of cheek pouch surface area—4; Complete ulceration of the cheek pouch mucosa—5.

Interleukin-1β = Interleukin-1β in jugular mucosa (ELISA), 5-FU induced OM in hamsters; type: in vivo, golden Syrian hamsters; conditions: G3, 0.1 mg/Animal
Experimental: as §1
(§2) Further, for biomarker estimation jugular mucosa was dissected out, tissue weighed and stored in ice cold 1×PBS. 100 mg of tissue was taken and in 1 ml of 1×PBS buffer. Supernatant of homogenate was used for analysis of TNF-α and Interleukin-1β using ELISA method as per manufacturers instruction. The levels of TNF-α and Interleukin-1β are given in Table 13, FIG. 2 and Table 14, FIG. 3, respectively.

TNF-α = TNF-α in jugular mucosa (ELISA), 5-FU induced OM in hamsters; type: in vivo, golden Syrian hamsters; conditions: G3, 0.1 mg/Animal
Experimental: as §1, §2

[4] = Body weight change in 5-FU induced OM hamsters; type: in vivo, golden Syrian hamsters; conditions: G3, 0.1 mg/Animal in buccal cheek pouch, Day 4 to Day 12, with respect to Day 4
Experimental: In-vivo experiments conducted in healthy golden Syrian hamsters wherein animals were grouped as below:
as §1
Body weight of each animal was recorded daily till the end of experiment. Percentage change in body weight of the animals was calculated by using formula with respect to Day 4.

Row | Structure (SMILES) | % Protection ([1]; 0.01 μM + 5-FU (5 mM)) [%] | % cytotoxicity ([1]; 0.01 μM + 5-FU (5 mM)) [%] | % viability ([1]; 0.01 μM + 5-FU (5 mM)) [%] | % Protection ([1]; 0.1 μM + 5-FU (5 mM)) [%] | % cytotoxicity ([1]; 0.1 μM + 5-FU (5 mM)) [%] | % viability ([1]; 0.1 μM + 5-FU (5 mM)) [%] | % Protection ([1]; 1 μM + 5-FU (5 mM)) [%] | % cytotoxicity ([1]; 1 μM + 5-FU (5 mM)) [%] | % viability ([1]; 1 μM + 5-FU (5 mM)) [%] | % Protection ([1]; 10 μM + 5-FU (5 mM)) [%] | % cytotoxicity ([1]; 10 μM + 5-FU (5 mM)) [%] | % viability ([1]; 10 μM + 5-FU (5 mM)) [%] | Histopathology score, Mean [2] | Mucositis score [3] | IL-1β levels, Mean (Interleukin-1β) | IL-1β levels, % Decrease vs G2 (Interleukin-1β; G2 = OM + Vehicle) [%] | TNF-α levels, Mean (TNF-α) [pg/mL] | TNF-α levels, % Decrease vs G2 (TNF-α; G2 = OM + Vehicle) [%] | decrease of body weight [4] [%]
1 | O=C(O[C@@H]1Cc2c(O)cc(O)cc2O[C@@H]1c1cc(O)c(O)c(O)c1)c1cc(O)c(O)c(O)c1 [EGCG, Epigallocatechin gallate] | 19.5 | 47 | 53 | 42.4 | 33.6 | 66.4 | 47.9 | 30.4 | 69.6 | 24.2 | 44.2 | 55.8 | – | – | – | – | – | – | –
2 | C[C@@H]1C[C@H]2[C@@H]3CCC4=CC(=O)C=C[C@]4(C)[C@@]3(F)[C@@H](O)C[C@]2(C)[C@@]1(O)C(=O)CO [Dexamethasone, reference compound] | – | – | – | – | – | – | – | – | – | – | – | – | 1.6 | 2.00±0.3 | 163.96 | 5.59 | 134.29 | −8.29 | 6.59
